Results reported in patent US9981940B2, “Aryl sulfide derivatives and aryl sulfoxide derivatives as acaricides and insecticides” (BAYER CROPSCIENCE AKTIENGESELLSCHAFT, priority 2013, dated 2018).

Key:
[1] = log P by HPLC (OECD Guideline 117), method [a] acidic range; assay type: physicochemical; conditions: for logP[a]: HPLC, method [a] acidic range
Experimental: (§1) The log P values were determined analogously to OECD Guideline 117 (EC Directive 92/69/EEC) by HPLC (high-performance liquid chromatography) using reversed-phase columns (C 18), by the following methods:
[a] The LC-MS determination in the acidic range is effected at pH 2.7 with 0.1% aqueous formic acid and acetonitrile (contains 0.1% formic acid) as eluents; linear gradient from 10% acetonitrile to 95% acetonitrile.

[2] = log P by HPLC (OECD Guideline 117), method [b] neutral range; assay type: physicochemical; conditions: HPLC; for chromatographic logP: reversed-phase C18 HPLC column, neutral range, pH 7.8; for logP[b]: method [b] neutral range
Experimental: as §1
[b] The LC-MS determination in the neutral range is effected at pH 7.8 with 0.001 molar aqueous ammonium hydrogencarbonate solution and acetonitrile as eluents; linear gradient from 10% acetonitrile to 95% acetonitrile.

[3] = reversed-phase C18 HPLC column, pH 2.7, HPLC method [a], acidic range, read-out: logP[a]
[4] = reversed-phase C18 HPLC column, pH 2.7, HPLC, acidic range, pH 2.7, read-out: log P[a]

Row | SMILES | chromatographic logP [1, 4] | logP[a] [1] | logP[b] [2] | further results
1 | O=c1n(-c2cc(SCC(F)(F)F)c(Cl)cc2F)nc(OCC(F)(F)F)n1C1CC1 [Example 186] |  | 3.96 | 3.89 | 
2 | N#Cc1cc(F)c(-n2nc(C(F)(F)F)n(C3CC3)c2=O)cc1F [XXIV-1, 4-[4-Cyclopropyl-5-oxo-3-(trifluoromethyl)-4,5-dihydro-1H-1,2,4-triazol-1-yl]-2,5-difluorobenzonitrile] |  |  |  | log P[a] ([1]; pH 2.7): 2.90; chromatographic logP ([1]; pH 2.7, log P[a]): 2.91
3 | N#Cc1cc(F)c(-n2nc(C(F)(F)F)oc2=O)cc1[S+]([O-])CC(F)(F)F (racemic) [Example 309] |  | 2.86 | 2.80 | 
4 | Cc1cc(F)c(-n2nc(OC3CCOC3)n(C)c2=O)cc1[S+]([O-])CC(F)(F)F (stereo not shown) [Example 161] |  | 1.89 | 1.84 | 
5 | Cc1ccc(-n2nc(OC3CCOC3)n(C)c2=O)cc1SCC(F)(F)F (stereo not shown) [Example 156] |  | 3.27 | 3.27 | 
6 | CC=Cc1nn(-c2cc(SCC(F)(F)F)c(C)cc2F)c(=O)n1C1CC1 [Example 81] |  | 3.55 | 3.49 | 
7 | CCCOC1=CC(=O)N(c2cc([S+]([O-])CC(F)(F)F)c(C)cc2F)C1 (stereo not shown) [Example 333] |  | 2.57 | 2.52 | 
8 | COc1nn(-c2ccc(C(F)(F)F)c([S+]([O-])CC(F)(F)F)c2)c(=O)n1C (stereo not shown) [Example 96, 5-Methoxy-4-methyl-2-{3-[(2,2,2-trifluoroethyl)sulphinyl]-4-(trifluoromethyl)phenyl}-2,4-dihydro-3H-1,2,4-triazol-3-one] | 2.89 |  |  | chromatographic logP [1, 3]: 2.89; chromatographic logP [2]: 2.83
9 | CCOc1nn(-c2ccc(C)c(SCC(F)(F)F)c2)c(=O)n1OC [Example 227] |  | 3.76 | 3.70 | 
10 | C=CCSc1nn(-c2cc([S+]([O-])CC(F)(F)F)c(C)cc2F)c(=O)n1CC=C (stereo not shown) [Example 432] |  | 2.94 | 3.05 | 
11 | COC(=O)c1nn(-c2cc(SSc3cc(-n4nc(C(=O)OC)n(C(C)C)c4=O)c(F)cc3C)c(C)cc2F)c(=O)n1C(C)C [XXVIII-1, Dimethyl 1,1′-[disulphanediylbis(6-fluoro-4-methylbenzene-3,1-diyl)]bis(4-isopropyl-5-oxo-4,5-dihydro-1H-1,2,4-triazole-3-carboxylate)] | 4.11 |  |  | 

Further lines, with some results ahead:

Row | chromatographic logP [1, 4] | logP[a] [1] | logP[b] [2] | SMILES | further results
12 | 2.45 |  |  | Cc1cc(F)c(-n2nn[nH]c2=O)cc1SCC(F)(F)F [Example 299, 1-{2-Fluoro-4-methyl-5-[(2,2,2-trifluoroethyl)sulphanyl]phenyl}-1,4-dihydro-5H-tetrazol-5-one] | chromatographic logP [1, 3]: 2.45; chromatographic logP [2]: 0.9
13 | 0.86 |  |  | CC(C)n1c(Br)n[nH]c1=O [5-Bromo-4-isopropyl-2,4-dihydro-3H-1,2,4-triazol-3-one] | chromatographic logP [2]: 0.83
14 | > 7.36 |  |  | Cc1ccc(SSc2cc(Br)ccc2C)cc1Br [4-Bromo-2-[(3-bromo-4-methylphenyl)disulphanyl]-1-methylbenzene] | chromatographic logP [2]: > 7.36
15 |  | 3.08 | 3.00 | Cc1cc(F)c(-n2nc(Br)n(Cc3ccccc3)c2=O)cc1[S+]([O-])CC(F)(F)F (stereo not shown) [Example 443] | 
16 | 2.16 |  |  | Cc1cc(F)c(-n2nc(C(=O)O)n(C(C)C)c2=O)cc1SCC(F)(F)F [1-{2-Fluoro-4-methyl-5-[(2,2,2-trifluoroethyl)sulphanyl]phenyl}-4-isopropyl-5-oxo-4,5-dihydro-1H-1,2,4-triazole-3-carboxylic acid] | 
17 |  | 3.31 | 3.26 | Cc1ccc(-n2nc(OCC(C)C)n(C)c2=O)cc1[S+]([O-])CC(F)(F)F (stereo not shown) [Example 167] | 
18 |  | 3.02 | 2.98 | COC1=CC(=O)N(c2cc(SCC(F)(F)F)c(C)cc2Cl)C1 [Example 319] | 
19 |  | 3.60 | 3.54 | COc1nn(-c2ccc(Br)c(SCC(F)(F)F)c2)c(=O)n1C [Example 168] | 
20 |  | 3.47 | 3.40 | N#Cc1cc(F)c(-n2nc(C(F)(F)F)oc2=O)cc1SCC(F)(F)F [Example 308] | 
